Measurements from US20230123334A1, “AMINO LIPID COMPOUND, PREPARATION METHOD THEREFOR, AND APPLICATION THEREOF” (SHENZHEN SHENXIN BIOTECHNOLOGY CO., LTD., priority 2020, published 2023).

System: HEK293 cells
Assay: Preliminary screening as DNA vectors, GFP transfection of HEK293 cells
Format: cell-based
Conditions: amino lipid/DOPE liposome with 75 ng plasmid DNA (psin-EGFP-IRES-Puro); number of GFP-expressing cells divided by total nuclei (Hoechst)
Method in brief: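 First, amino lipid and DOPE were vortexed in sodium acetate buffer (pH 5.6) to form liposomes. Next, these were held with 75 ng EGFP plasmid at room temperature for 30 min. Finally, HEK293 cells were added, cultured at 37° C., Hoechst-stained, and GFP+/total nuclei scored by imaging.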

Structure (SMILES)	Absolute DNA transfection efficiency in HEK293 cells [%]
CCCCCCCCCCCNc1nc(NCC2CCN(C)CC2)nc(SCCCCCCCCCC)n1 [S10N11 D10]	5.4
CCCCCCCCCCCCCCCCNc1nc(NCCN2CCOCC2)nc(SCCCCCCCCCCCCCCC)n1 [S15N16 D2]	0.0
CCCCCCSc1nc(NCCN2CCOCC2)nc(SCCCCCC)n1 [S6S6 D2]	0.4
CCCCCCCCCCCCCCCCSc1nc(NCCN(CC)CC)nc(SCCCCCCC)n1 [S7S16 D7]	3.5
CCCCCCCCCCCCCCCSc1nc(NCCCCCCCCCCC)nc(NCCCN2CCOCC2)n1 [S15N11 D8]	6.1
CCCCCCCCCCCCNc1nc(NCCN2CCOCC2)nc(SCCCCCCCCC)n1 [S9N12 D2]	13.0
CCCCCCCCCCCCCCCCSc1nc(NCCCN(C)C)nc(SCCCCCCC)n1 [S7S16 D6]	9.0
CCCCCCCCCCCCCCSc1nc(NCCCCCC)nc(NCCN2CCCC2)n1 [S14N6 D3]	23.6
CCCCCCCCNc1nc(NCCCN2CCOCC2)nc(SCCCCCCCC)n1 [S8N8 D8]	2.9
CCCCCCCCCCCCCCCCCCNc1nc(NCCN(CC)CC)nc(SCCCCCCCCC)n1 [S9N18 D7]	6.0
CCCCCCCCCCCCCCCCNc1nc(NCCCN2CCOCC2)nc(SCCCCCCCCC)n1 [S9N16 D8]	18.4
CCCCCCCCCCCCCCCCCCSc1nc(NCCCCCC)nc(NCCN(C)C)n1 [S18N6 D1]	6.9
CCCCCCCCCCSc1nc(NCCCCCCCC)nc(NCCN(CC)CC)n1 [S10N8 D7]	2.0
CCCCCCCCCCCCCCSc1nc(NCCN2CCCC2)nc(SCCCCCC)n1 [S6S14 D3]	9.2
CCCCCCCCCCCCCCCCNc1nc(NCCN(C)C)nc(SCCCCCCCC)n1 [S8N16 D1]	7.1
CCCCCCCCCCCCCCCCCCNc1nc(NCCCN2CCN(C)CC2)nc(SCCCCCCCCCCCCCCC)n1 [S15N18 D9]	0.4
CCCCCCCCCCCNc1nc(NCCN2CCCCC2)nc(SCCCCCCCC)n1 [S8N11 D4]	14.3
CCCCCCCCCCCCCCCCNc1nc(NCCN2CCOCC2)nc(SCCCCCCC)n1 [S7N16 D2]	12.9
CCCCCCCCSc1nc(NCCCCCCC)nc(NCCCN(C)C)n1 [S8N7 D6]	8.5
CCCCCCCCSc1nc(NCCCCCCC)nc(NCCN(CC)CC)n1 [S8N7 D7]	1.4
CCCCCCCCCCCNc1nc(NCCN2CCOCC2)nc(SCCCCCC)n1 [S6N11 D2]	0.2
CCCCCCCCCCCCCCCCCCSc1nc(NCCCCCC)nc(NCCCN2CCOCC2)n1 [S18N6 D8]	5.5
CCCCCCCCCCCCCCCCCCNc1nc(NCCN2CCCC2)nc(SCCCCCCCCC)n1 [S9N18 D3]	33.8
CCCCCCCCCCCCCCCCCCSc1nc(NCCN2CCOCC2)nc(SCCCCCC)n1 [S6S18 D2]	8.1

Structure (SMILES)	Absolute DNA transfection efficiency in HEK293 cells [%]
CCCCCCCCCCCCCCCCCCNc1nc(NCCCN2CCN(C)CC2)nc(SCCCCCCCCCC)n1 [S10N18 D9]	3.3
CCCCCCCCCCCCSc1nc(NCCCCCCC)nc(NCC2CCN(C)CC2)n1 [S12N7 D10]	5.8
CCCCCCCCCCCCCCCCSc1nc(NCCCCCCCCC)nc(NCCCN(C)C)n1 [S16N9 D6]	11.7
CCCCCCCCCCCCCCCCSc1nc(NCCCCCCCCCCCCC)nc(NCCN(CC)CC)n1 [S16N13 D7]	3.7
CCCCCCCCCCCCCCCCCCSc1nc(NCCCCCCCCCCC)nc(NCCN(CC)CC)n1 [S18N11 D7]	2.7
CCCCCCCCCCCCCCCSc1nc(NCCCN(C)C)nc(SCCCCCC)n1 [S6S15 D6]	36.4
CCCCCCCCCCCCCCCCNc1nc(NCCN(C)C)nc(SCCCCCCCCC)n1 [S9N16 D1]	19.2
CCCCCCCCCCCCCCCCNc1nc(NCCN2CCCC2)nc(SCCCCCCCCCCC)n1 [S11N16 D3]	13.8
CCCCCCCCCCCCSc1nc(NCCN2CCCC2)nc(SCCCCCCC)n1 [S7S12 D3]	9.9
CCCCCCCCCCCCCCCCCCSc1nc(NCCCCCCCCC)nc(NCC2CCN(C)CC2)n1 [S18N9 D10]	4.5
CCCCCCCCCCCCSc1nc(NCCCCCCCC)nc(NCCCN2CCN(C)CC2)n1 [S12N8 D9]	8.9
CCCCCCCCCCCCCCCCCCSc1nc(NCCCCCC)nc(NCCCN(C)C)n1 [S18N6 D6]	14.5
CCCCCCCCCCCCCCCCNc1nc(NCCN2CCCCC2)nc(SCCCCCC)n1 [S6N16 D4]	2.4
CCCCCCCCCNc1nc(NCCCN2CCN(C)CC2)nc(SCCCCCCC)n1 [S7N9 D9]	22.8
CCCCCCCCCCCCCCCCCCNc1nc(NCCN(C)C)nc(SCCCCCC)n1 [S6N18 D1]	21.0
CCCCCCCCCCCCCCCCSc1nc(NCCCCCCCC)nc(NCCN2CCN(C)CC2)n1 [S16N8 D5]	6.7
CCCCCCCCCCCCNc1nc(NCC2CCN(C)CC2)nc(SCCCCCCCCC)n1 [S9N12 D10]	25.8
CCCCCCCCCCCCNc1nc(NCCCN(C)C)nc(SCCCCCCCCCCCC)n1 [S12N12 D6]	9.1
CCCCCCCCCCCCCNc1nc(NCCN2CCOCC2)nc(SCCCCCCCCCC)n1 [S10N13 D2]	4.2
CCCCCCCCCCCCCCCCSc1nc(NCCCN2CCN(C)CC2)nc(SCCCCCC)n1 [S6S16 D9]	3.9
CCCCCCCCCCCCSc1nc(NCCCN2CCOCC2)nc(N(CCCCCCCCCCCC)CCCCCCCCCCCC)n1 [S12^2N12 D8]	0.0
CCCCCCCCCCCCCCCCCCNc1nc(NCCCN(C)C)nc(SCCCCCCCC)n1 [S8N18 D6]	20.6
CCCCCCCCCCSc1nc(NCCCCCCCCC)nc(NCCN(C)C)n1 [S10N9 D1]	7.1
CCCCCCCCCCCNc1nc(NCCN(C)C)nc(SCCCCCCCCCC)n1 [S10N11 D1]	4.8

Structure (SMILES)	Absolute DNA transfection efficiency in HEK293 cells [%]
CCCCCCCCSc1nc(NCCCCCC)nc(NCCN2CCN(C)CC2)n1 [S8N6 D5]	5.0
CCCCCCCCCCCSc1nc(NCCCCCCCC)nc(NCCN2CCCCC2)n1 [S11N8 D4]	5.9
CCCCCCCCCCCSc1nc(NCCCCCC)nc(NCCN2CCCC2)n1 [S11N6 D3]	8.3
CCCCCCCCCCCCCCCCSc1nc(NCCCCCCCCCCCCCCC)nc(NCCCN(C)C)n1 [S16N15 D6]	0.0
CCCCCCCCCCCNc1nc(NCCN2CCN(C)CC2)nc(SCCCCCCCCCCC)n1 [S11N11 D5]	10.1
CCCCCCCCCCCCCCSc1nc(NCCCCCCC)nc(NCCN2CCOCC2)n1 [S14N7 D2]	18.7
CCCCCCCCCCSc1nc(NCCCN2CCN(C)CC2)nc(SCCCCCCC)n1 [S7S10 D9]	23.9
CCCCCCCCCCCCCNc1nc(NCCN2CCN(C)CC2)nc(SCCCCCCCCCC)n1 [S10N13 D5]	2.1
CCCCCCCCCCCCSc1nc(NCCCN2CCOCC2)nc(SCCCCCCCC)n1 [S8S12 D8]	34.4
CCCCCCCCCCCCCCCSc1nc(NCCCCCCCCCCCC)nc(NCCN(C)C)n1 [S15N12 D1]	4.9
CCCCCCCCCCCCCCCSc1nc(NCCCCCCCCCCCCC)nc(NCCN2CCOCC2)n1 [S15N13 D2]	0.0
CCCCCCCCNc1nc(NCCN2CCCC2)nc(SCCCCCCCC)n1 [S8N8 D3]	8.5
CCCCCCCCCCCCCCCCCCNc1nc(NCCN2CCCC2)nc(SCCCCCCC)n1 [S7N18 D3]	16.1
CCCCCCCCCCCCCCCCNc1nc(NCCN2CCCC2)nc(SCCCCCCCCCCCCCC)n1 [S14N16 D3]	1.3
CCCCCCCCCCCCCCCNc1nc(NCCN(C)C)nc(SCCCCCCCCCCCCCCC)n1 [S15N15 D1]	0.6
CCCCCCCCCCCCCCCCSc1nc(NCCN(C)C)nc(N(CCCCCCCCCCCC)CCCCCCCCCCCC)n1 [S16^2N12 D1]	0.0
CCCCCCCCCCCCCCCCCCSc1nc(NCCCCCCCCCCCC)nc(NCCCN2CCN(C)CC2)n1 [S18N12 D9]	0.0
CCCCCCCSc1nc(NCCN(CC)CC)nc(SCCCCCCC)n1 [S7S7 D7]	9.3
CCCCCCCCCCCCCCCCCCNc1nc(NCCCN2CCOCC2)nc(SCCCCCCCCCCCCCCCC)n1 [S16N18 D8]	0.0
CCCCCCCCCCCCCCSc1nc(NCCCCCCCC)nc(NCCCN(C)C)n1 [S14N8 D6]	33.4
CCCCCCCCCCCCCCCCSc1nc(NCCN2CCN(C)CC2)nc(N(CCCCCCCCCCCC)CCCCCCCCCCCC)n1 [S16^2N12 D5]	0.0
CCCCCCCCCCCCCCCCCCNc1nc(NCCN(CC)CC)nc(SCCCCCCCCCCC)n1 [S11N18 D7]	3.4
CCCCCCCCCCCCCNc1nc(NCCN2CCN(C)CC2)nc(SCCCCCCCCCCC)n1 [S11N13 D5]	8.4
CCCCCCCCCCCNc1nc(NCCCN2CCOCC2)nc(SCCCCCCCCCC)n1 [S10N11 D8]	3.8
